This is an account of results in PMC7663263 (Molecules, 2020).

Assay [1] concerns Human TrxR. To be noted: 3.7 nM enzyme, 3 mM DTNB; after 10 min preincubation; read-out: IC50 Human TrxR, substrate DTNB; cited from earlier work.
Assay [2] relates to Leishmania donovani LV9 intramacrophage amastigotes. The assay can be described thus: L. donovani LV9 intramacrophage amastigotes. Format: cell-based. Conditions: read-out: Leishmania Donovani LV9 Intramacrophage Amastigotes IC50 (µm) ± SD. As to the method:
In vitro anti-leishmanial evaluation was perfomed on both axenic and intramacrophage L. donovani amastigotes as previously described. […] Briefly, compounds were distributed in 96-well plates using 2-fold dilutions in 100 µL PYG medium. A. castellanii trophozoites were added to each well at 5 × 10^4 amoeba/mL in 200 µL final volume. L. donovani axenic amastigotes were added to each well at 10^6 parasites/mL in 200 µL final volume. After 72 h incubation at 27 °C, 20 µL of 1 mM resazurin was added to each well and further incubated at 27 °C for 8 h for A. castellanii and for 24 h for L. donovani axenic amastigotes. In living cells, resazurin is reduced in resorufin. This conversion is monitored by measuring the absorbance at specific wavelengths of resorufin (570 nm) and resazurin (600 nm) using a microplate reader (Labsystems Multiskan MS, McLean, VA, USA). In this assay, the activity was expressed in IC50. Miltefosine and pentamidine were used as reference drugs. All experiments were performed in three independent experiments.

In assay [3] the test system is O. ochengi microfilariae. The assay can be described thus: O. ochengi microfilariae motility assay. Conditions: 10 μM. Format: cell-based, Onchocerca ochengi. As to the method:
(§1) O. ochengi microfilariae assays: were collected from the hides of infected cattle and washed prior to adding 10–15 microfilariae to 96-well culture plates containing confluent monkey kidney epithelial cells in 100 μL of media. Microfilariae were run in duplicate and plates were maintained at 37 °C in a 5% CO2 incubator. Microfilariae viability was visually scored using percent reduction of motility using the same scoring criteria used for adult males. Scores were recorded every 24 h after addition of drugs for 5 days using an inverted microscope.

The subject of assay [4] is L. loa microfilariae. The assay is described as follows: L. loa microfilariae motility assay. To be noted: 10 μM. It is filed as cell-based. As to the method: as §1
L. loa microfilariae assays: L. loa microfilariae were purified from the blood of infected individuals using a step-wise Percoll gradient (46% and 43% Percoll) followed by centrifugation at 400 rcf for 20 min. The microfilariae were recovered in the 43% layer then assayed using the same culture conditions and method as the O. ochengi microfilariae.

Assay [5] concerns adult ex vivo S. mansoni worms. The assay is described as follows: Adult ex vivo Schistosoma worm killing assay. It is filed as cell-based. As to the method:
Adult ex vivo Schistosoma assay: Mice (Swiss-Webster) were infected with S. mansoni by percutaneous exposure for 1 h to cercariae (NMRI strain) obtained from infected Biomphalaria glabrata snails. This study was approved by the Institutional Animal Care and Use Committee of Rush University Medical Center (17-053; Department of Health and Human Services animal welfare assurance number A-3120-01). Adult worms were isolated from infected mice as described and cultured in RPMI medium +10% fetal calf serum (FCS), 10 mM glutamine, 100 IU/mL penicillin and 100 µg/mL streptomycin for 24 h before compound addition. Compounds were dissolved in DMSO and added at the indicated concentrations. The culture media was replaced every day and fresh compounds added. Control worms were treated with DMSO alone. Worms were cultured for 5 days. […] Assays were done in triplicate with about 10 worms in each well. This study was approved by the Institutional Animal Care and Use Committee of Rush University Medical Center (17-053; Department of Health and Human Services animal welfare assurance number A-3120-01).

The subject of assay [6] is T. cruzi Tulahuen CL2. The assay can be described thus: Anti-Chagas activity, T. cruzi on MRC-5 cells. It is filed as cell-based. To be noted: amastigotes, MRC-5 host cells, 7 days; read-out: Trypanosoma cruzi IC50 (µM) ± SD. As to the method:
Anti-Chagas activity: T. cruzi Tulahuen CL2 (benznidazole-sensitive, LacZ-reporter strain) was maintained on MRC-5 cells in minimal essential medium (MEM) supplemented with […], 16.5 mM sodium hydrogen carbonate and 5% FCS. In the assay, 4 × 10^3 MRC-5 cells and 4 × 10^4 parasites were added to each well. After incubation at 37 °C for 7 days, parasite growth was assessed by adding the substrate chlorophenol red -D-galactopyranoside. The color reaction was read at 540 nm after 4 h and absorbance values were expressed as a percentage of the blank controls. Benznidazole was included as reference drug.

Assay [7] concerns the target T1, S. mansoni TGR (Schistosoma mansoni, UniProt Q962Y6).
T1 construct: made in house; host or cells: E. coli
T1 sequence (Q962Y6 1-598): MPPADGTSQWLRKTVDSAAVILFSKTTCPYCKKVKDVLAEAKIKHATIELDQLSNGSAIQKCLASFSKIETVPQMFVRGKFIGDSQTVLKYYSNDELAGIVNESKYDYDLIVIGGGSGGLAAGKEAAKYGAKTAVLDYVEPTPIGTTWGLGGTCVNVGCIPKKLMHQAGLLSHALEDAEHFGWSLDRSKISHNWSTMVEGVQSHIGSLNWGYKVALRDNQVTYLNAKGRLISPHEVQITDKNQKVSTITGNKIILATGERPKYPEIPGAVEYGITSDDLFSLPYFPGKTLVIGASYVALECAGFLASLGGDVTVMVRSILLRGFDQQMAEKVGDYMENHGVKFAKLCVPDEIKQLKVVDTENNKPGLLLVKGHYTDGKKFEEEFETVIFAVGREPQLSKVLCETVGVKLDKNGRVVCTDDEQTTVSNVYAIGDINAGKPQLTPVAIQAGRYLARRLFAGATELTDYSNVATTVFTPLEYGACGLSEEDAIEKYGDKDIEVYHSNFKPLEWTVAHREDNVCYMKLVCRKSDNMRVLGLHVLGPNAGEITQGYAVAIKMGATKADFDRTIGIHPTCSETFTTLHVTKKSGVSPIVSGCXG
The assay is described as follows: biochemical. To be noted: 40 nM enzyme, 3 mM DTNB; after 10 min preincubation; read-out: IC50 S. mansoni TGR, substrate DTNB (original data). As to the method:
Enzymes were prepared in E. coli as described. Assays were performed at 25 °C in 0.1 M potassium phosphate (pH 7.4), 10 mM EDTA using 100 μM NADPH and 3 mM dithiobis(2-nitrobenzoic acid) (DTNB). […] The increase in A412 during the first 3 min was recorded upon DTNB addition. The reaction was done in triplicate.

On to `CC(=O)OCC1OC([S][Au][PH]2(c3ccccc3)C(c3ccccn3)=CC=C2c2ccccn2)C(OC(C)=O)C(OC(C)=O)C1OC(C)=O` [GoPI-sugar, 1-thio-β-D-glucopyranose 2,3,4,6-tetraacetato-S-Au{1-phenyl-2,5-di(2-pyridyl)phosphole}], for which the IC50 – broadly, the concentration that gives 50% inhibition – in assay [1] was 0.49 ± 0.04 nM; in assay [2], 420 ± 150 nM; in assay [6] it was 0.56 ± 0.11 µM; in assay [7] it was 12.5 nM. In addition, in assay [3], the “% Inhibition of Motility O. ochengi mf Day 5” value amounted to 100%. Besides, in assay [4], the “% Inhibition of Motility L. loa mf w/MK2 Cells Day 5” value was found to be 38%. For the same compound, the results for the “Dead (%) Day 1” value in assay [5] (1 μM), in assay [5] (5 μM) and in assay [5] (10 μM) were 0%, 100% and 100%, respectively. Also, in assay [5] (1 μM), the “Dead (%) Day 2” value is listed as 0%. Besides, in assay [5] (1 μM), the “Dead (%) Day 3” value worked out at 0%. Besides, the “Dead (%) Day 4” value in assay [5] (1 μM) is listed as 0%. In addition, the “Dead (%) Day 5” value in assay [5] (1 μM) came out at 0%.
